{"source": "patent US10172911B2", "about": "“Methods of modulating erythropoiesis with arginine vasopressin receptor 1B molecules” (The United States of America, as represented by the …, priority 2013, dated 2019)", "key": {"human CD34^+ cells": {"system": "human CD34^+ cells", "assay": "BrdU cell proliferation assay, human CD34+ cells", "format": "cell-based", "protocol": "Sorted mouse bone marrow LSK cells (10000 cells/well) were plated in a 96 well plate in Stemspan serum free expansion medium ([…] Technologies, Vancouver, Canada) with Pen/Strep, and the following hematopoietic factors: 100 ng/ml TPO, 50 ng/ml FLT3L, 50 ng/ml IL-3 and SCF 100 ng/ml (Peprotech, Rocky Hill, N.J.). Cells were treated with […] (Sigma-Aldrich, St. Louis, Mo.). When using human CD34^+ cells (5000 cells/well), human SCF, TPO, FLT3L and G-CSF (Peprotech, each at 50-100 ng/ml) were added to the Stemspan medium. Cells were treated with 10^−8M-10^−14M AVP. After 24 hours, BrdU at a 1:1000 concentration was added to the cultures and incorporation of BrdU was measured using the Cell Proliferation ELISA BrdU kit (Roche, Mannheim, Germany) after another 24 hours of incubation."}, "BM erythroid cells": {"system": "BM erythroid cells", "assay": "Bone marrow erythroid populations after injection of AVP, AVPR1B agonist or EPO (flow cytometry, EdU)", "format": "in vivo, mouse", "protocol": "In vivo AVP-treated/hemorrhaged/control mice were IP injected with 10 μM/1000 g BW 5-ethynyl-2′-deoxyuridine (EdU: Life Technologies) for 2 hours. Single cell suspensions from the tibial and femoral bone marrows of mice (n=5 in each group) were prepared. After lysing the cells with ACK buffer, cells of the erythroid lineage were labeled with antibodies against TER-119 (BD Pharmingen) and CD71 (BD Pharmingen) or CD44 (BD Pharmingen) conjugated with FITC or PE fluorophores. After washing with FACS buffer, cells were fixed/permeabilized according to the manufacturer's recommendation (Life Technologies). Incorporated EdU molecules were visualized by a click reaction with Alexa Fluor 647-conjugated picolyl-azide and cell nuclei were stained with DAPI. Cell cycle characteristics of erythroid cells were detected with a Beckman-Coulter MoFlo Astrios flow cytometer.\nFor lineage negative, Sca-1 positive and c-kit positive (LSK) cell sorting, rat anti-mouse lineage antibodies (anti CD4, CD8, B220, Ter119, Gr-1, CD11b) were added to bone marrow cell suspension after ACK lysis and cells were depleted using anti-rat magnetic beads (Biomag anti rat IgG, Qiagen). Lineage negative cells were stained with c-kit PE/Cy5 and Sca-1-FITC antibodies and the double positive population was further enriched with anti-PE and anti-FITC magnetic beads (Miltenyi). LSK cells were sorted on a DAKO Cytomation MoFlo cell sorter. For LSK subpopulation sorting lineage depleted cells were stained for c-kit, Sca-1, CD48, CD150 and CD34 and 4 LSK subpopulations were sorted using the gating strategy described by Wilson et al. (34). Sorted cells from HSC (LSK, CD34^−, CD48^−, CD150^+), MPP1 (LSK, CD34^+, CD48^−, CD150^+), MPP2 (LSK, CD34^+, CD48^+, CD150^+) and MPP3/4 (LSK, CD34^+, CD48^+, CD150^−) subpopulations were plated in 1×PBS onto coated glass slides fixed with 2% PFA and immunostained for AVPR1B. Erythropoietic progenitors were sorted based on CD71 and Ter119 markers. All cells were sorted using a MoFlo Astrios cell sorter (Beckman Coulter). Competitive Repopulation Assay\nThe inventors determined that AVP induced a fast hematocrit response in severe anemia that is independent of EPO. AVP receptors in the HSPCs was confirmed and they next decided to examine how AVP affects the erythroid lineage cells (developmental stages) in the BM. […] In cell populations sorted as above, the presence of AVPR1B and EPO receptor (EPOR) mRNA using QPCR was also determined. […] AVPR2 mRNA was detected in all populations, whereas AVPR1A mRNA was barely detectable."}}, "note": "“Also recorded” adds a separate entry of the source.", "data": [{"smiles": "NC(=O)CC[C@@H]1NC(=O)[C@H](Cc2ccccc2)NC(=O)[C@H](Cc2ccc(O)cc2)NC(=O)[C@@H](N)CSSC[C@@H](C(=O)N2CCC[C@H]2C(=O)N[C@@H](CCCN=C(N)N)C(=O)NCC(N)=O)NC(=O)[C@H](CC(N)=O)NC1=O", "note": "[AVP, [Arg8]-Vasopressin]", "values": [{"measurement": "proliferation (BrdU) of human CD34+ cells / HSPCs", "setting": "human CD34^+ cells", "value": "induced proliferation; also recorded: significantly increased the proliferation"}, {"measurement": "BM erythroid progenitors (Ter-119, CD 71 gated area)", "setting": "BM erythroid cells; 16 hours after injection", "value": "clear increase in progenitors"}, {"measurement": "apoptosis in the late progenitor populations", "setting": "BM erythroid cells; EdU, Annexin V and DAPI", "value": "significant decrease in apoptosis"}, {"measurement": "effect on more matured erythroid populations", "setting": "BM erythroid cells; after hemorrhage, AVP vs EPO", "value": "much more robust effect than EPO"}, {"measurement": "numbers of more mature erythroid cells (polychromatic and orthochromatic erythroblasts/reticulocytes)", "setting": "BM erythroid cells; bone marrow, flow cytometry", "value": "significantly increased"}]}]}
